Earlier results as cited in US8227223B2, “Method and apparatus for facilitating evaluating migration of cells in vitro” (Applied Biophysics, Inc., priority 2009, dated 2012).

Key:
muscarinic receptor = conditions: CHO cells over expressing the muscarinic receptor
β-adrenergic receptor = conditions: BAEC endothelial cells
[1] = tested on: confluent bovine aortic endothelial cells

Molecule: C[N+](C)(C)CCOC(N)=O [carbachol]
- change of impedance upon binding of the agonist (muscarinic receptor; impedance at 4000 Hz): doubling of impedance

Molecule: CC(C)NCC(O)c1ccc(O)c(O)c1 (stereo not shown) [isoproterenol]
- change of impedance of the cell layer upon agonist binding (β-adrenergic receptor): readily measured increase in the impedance

Molecule: CN1CCN(CC(=O)N2c3ccccc3C(=O)Nc3cccnc32)CC1 [pirenzepine]
- inhibition of the carbachol impedance response (muscarinic receptor; antagonist against carbachol): can be inhibited

Molecule: thrombin
- change of impedance upon exposure (barrier function) [1]: drop in impedance
